Reference: patent US20090155440A1, “Salt Enhancing Compounds and Use” (GIVAUDAN SA, priority 2005, published 2009)

Key:
Assay type in all cases: in vivo
sensory panel [1] = test: Sensory test in ketchup, Example 5; details: additive 500 ppm
Method: (§1) Unless otherwise indicated, all sensory tests are triangle tests and are performed according to the guidelines in “Amtliche Sammlung von Untersuchungsverfahren nach § 35 LMBG (Lebensmittel-und Bedarfsgegenständegesetz)”; L 00.90 7, Untersuchung von Lebensmitteln, Sensorische Prüfverfahren, Dreiecksprüfung (Übernahme der gleichnahmigen Deutschen Norm DIN ISO 4120, Ausgabe Januar 1995), as follows:
For recording the taste profiles, samples are prepared as indicated in the examples below. Taste profiles of samples are determined in a triangle test in three different sessions. Panellists refrain from eating or drinking for at least 1 hour prior to the session. At the start of the session and before each trial, the subject rinsed with water and expectorated. The participants receive a set of two blanks and one taste sample. Liquid samples are swirled around in the mouth briefly and expectorated. Solid samples are chewed for 20 seconds and then expectorated. […] Each sample with additive is compared to two reference samples without additives. Kokumi intensity is rated from 0-5 according to a scale from 0 to 5 (with 5 most intensive). The additive is added to a consumable and the sample is homogenised. The samples are presented to the sensory panel directly after homogenisation. […]

sensory panel [2] = test: Isointensity triangle test in sodium and potassium salt solution (30 mmol/L NaCl, 15 mmol/L KCl), Example 1b; details: NaCl 30 mmol/L + KCl 15 mmol/L, salt enhancer 10 mmol/L; without enhancer 40 mmol/L
Method: Unless otherwise indicated, all sensory tests are triangle tests and are performed according to the guidelines in “[…] von […]-und Bedarfsgegenständegesetz)”; L 00.90 7, Untersuchung von Lebensmitteln, Sensorische […] Deutschen Norm DIN ISO 4120, Ausgabe Januar 1995), as follows: For recording the taste profiles, samples are prepared as indicated in the examples below. Taste profiles of samples are determined in a triangle test in three different sessions. Panellists refrain from eating or drinking for at least 1 hour prior to the session. At the start of the session and before each trial, the subject rinsed with water and expectorated. The participants receive a set of two blanks and one taste sample. Liquid samples are swirled around in the mouth briefly and expectorated. Solid samples are chewed for 20 seconds and then expectorated. […] Each sample with additive is compared to two reference samples without additives. Kokumi intensity is rated from 0-5 according to a scale from 0 to 5 (with 5 most intensive). The additive is added to a consumable and the sample is homogenised. The samples are presented to the sensory panel directly after homogenisation. […] KCl is often used in small concentrations to reduce sodium without loss of salty taste. […] For the samples compared and the results see the table below.

sensory panel [3] = test: Sensory triangle test in chicken broth, Examples 3a and 3b; details: for Kokumi Intensity (0-5): scale 0 to 5, 5 most intensive, reference 2; for Sensory results (compared to 1): chicken broth, Example 3b
Method: as §1
The sensory panel is trained to evaluate the taste of aqueous solutions (4 ml each) of the following standard taste compounds by using a triangle test as described in the literature (Wieser and Belitz, Z. Lebensm. Unters. Forsch., 1975,159, 65-72): sucrose (40 mmol/L) for sweet taste; citric acid (5 mmol/L) for sour taste; NaCl (12 mmol/L) for salty taste; caffeine (2 mmol/L) for bitter taste; and monosodium glutamate (MSG; 6 mmol/L) for umami taste. For kokumi taste, a solution of glutathione (10 mmol/L) in diluted chicken broth concentrate (Goumet Bouillon Huhn, Maggi, Singen, Germany; 3 g/100 g bottled water (Evian®)) is prepared and compared to the taste of chicken broth with no glutathione added.
(§2) For recording the taste profiles, samples are prepared as indicated in the examples below. Taste profiles of samples are determined in a triangle test in three different sessions. Panellists refrain from eating or drinking for at least 1 hour prior to the session. At the start of the session and before each trial, the subject rinsed with water and expectorated. The participants receive a set of two blanks and one taste sample. Liquid samples are swirled around in the mouth briefly and expectorated. Solid samples are chewed for 20 seconds and then expectorated. […] Each sample with additive is compared to two reference samples without additives. Kokumi intensity is rated from 0-5 according to a scale from 0 to 5 (with 5 most intensive). The additive is added to a consumable and the sample is homogenised. The samples are presented to the sensory panel directly after homogenisation. The sensory panel included 6-8 trained individuals with exception of example 4, here the panel consists of 10 trained individuals.
Chicken broth is prepared by diluting 3 g of a chicken broth concentrate (Gourmet Bouillon Huhn, Nestle) with 100 ml water. Additives are added as specified in table below in a concentration of 10 mmol/L. The pH-value of all samples is adjusted to 6.5 using formic acid (0.1 mol/L) or sodium hydroxide (0.1 mol/L).
Kokumi intensity is rated according to a scale from 0 to 5 (with 5 most intensive). […] The additive is added to a consumable and the sample is homogenised.
The samples are presented to the sensory panel directly after homogenisation. The sensory panel included 8 trained individuals.
The samples are tested as described above in example 3a.

sensory panel [4] = test: Isointensity triangle test, S-substituted peptides in sodium salt solution (30 mmol/L NaCl), Example 1a; details: compound 10 mmol/L in aqueous NaCl 30 mmol/L, pH 6.5; reference without additive 30 mmol/L
Method: Unless otherwise indicated, all sensory tests are triangle tests and are performed according to the guidelines in “[…] von […]-und Bedarfsgegenständegesetz)”; L 00.90 7, Untersuchung von Lebensmitteln, Sensorische […] Deutschen Norm DIN ISO 4120, Ausgabe Januar 1995), as follows: The sensory panel is trained to evaluate the taste of aqueous solutions (4 ml each) of the following standard taste compounds by using a triangle test as described in the literature ([…] and Belitz, Z. Lebensm. Unters. Forsch., 1975,159, 65-72): sucrose (40 mmol/L) for sweet taste; citric acid (5 mmol/L) for sour taste; […] All sensory analyses are performed in a sensory panel room at 22-25° C. over three different sessions by a trained panel of 8 to 10 individuals. For recording the taste profiles, samples are prepared as indicated in the examples below. Taste profiles of samples are determined in a triangle test in three different sessions. Panellists refrain from eating or drinking for at least 1 hour prior to the session. At the start of the session and before each trial, the subject rinsed with water and expectorated. The participants receive a set of two blanks and one taste sample. Liquid samples are swirled around in the mouth briefly and expectorated. Solid samples are chewed for 20 seconds and then expectorated. […] Each sample with additive is compared to two reference samples without additives. Kokumi intensity is rated from 0-5 according to a scale from 0 to 5 (with 5 most intensive). The additive is added to a consumable and the sample is homogenised. The samples are presented to the sensory panel directly after homogenisation. The sensory panel included 6-8 trained individuals with exception of example 4, here the panel consists of 10 trained individuals. The compounds listed in the table below are dissolved in an aqueous solution (pH 6.5) of NaCl (30 mmol/L).

sensory panel [5] = test: Sensory test in cream cheese, Example 4; details: for Sensory results compared to 2: versus NaCl Reference (2000 ppm); for Sensory results (compared to 1): versus reference without additives
Method: as §1, §2
Samples are compared by a panel of 10 trained panelists.

N[C@@H](CCC(=O)N[C@@H](CSC(CC(=O)O)C(=O)O)C(=O)NCC(=O)O)C(=O)O (stereo partly drawn) [S-(α,β-dicarboxyethyl) γ-L-glutamyl-L-cysteinyl-glycine]
Sensory results (compared to 1) (sensory panel [1]): Slightly more salty
concentration of an isointense NaCl-solution (sensory panel [2]): 57 mmol/L
Kokumi Intensity (0-5) (sensory panel [3]; chicken broth pH 6.5, additive 400 ppm): 3.5
concentration of an isointense NaCl-solution (sensory panel [4]): 48 mmol/L
Sensory results compared to 2 (sensory panel [5]; additive 1000 ppm): greater effect on saltiness than the addition of NaCl

CCOC(=O)C(CSC(CC(=O)O)C(=O)O)NC(=O)CC[C@H](N)C(=O)O (stereo partly drawn) [S-(α,β-dicarboxyethyl) γ-L-glutamyl-cysteine ethyl ester]
concentration of an isointense NaCl-solution (sensory panel [4]): 48 mmol/L

N[C@@H](CSC(CC(=O)O)C(=O)O)C(=O)O (stereo partly drawn) [S-(α,β-dicarboxyethyl)-L-cysteine, S-(α,β-dicarboxyethyl) cysteine]
Sensory results (compared to 1) (sensory panel [3]; additive 400 ppm): More salty
concentration of an isointense NaCl-solution (sensory panel [4]): 40 mmol/L
Sensory results compared to 2 (sensory panel [5]; additive 1000 ppm): Slightly more salty
Sensory results (compared to 1) (sensory panel [5]; additive 1000 ppm): More salty

N[C@@H](CCC(=O)N[C@@H](CSC(CC(=O)O)C(=O)O)C(=O)O)C(=O)O (stereo partly drawn) [S-(α,β-dicarboxyethyl) γ-L-glutamyl-cysteine]
concentration of an isointense NaCl-solution (sensory panel [4]): 60 mmol/L
Sensory results compared to 2 (sensory panel [5]; additive 1000 ppm): greater effect on saltiness than the addition of NaCl

COC(=O)[C@@H](N)CSC(CC(=O)O)C(=O)O (stereo partly drawn) [S-(α,β-dicarboxyethyl) cysteine methyl ester]
concentration of an isointense NaCl-solution (sensory panel [4]): 38 mmol/L

CCOC(=O)[C@@H](N)CSC(CC(=O)O)C(=O)O (stereo partly drawn) [S-(α,β-dicarboxyethyl) cysteine ethyl ester]
concentration of an isointense NaCl-solution (sensory panel [4]): 42 mmol/L

N[C@@H](CCC(=O)N[C@@H](CSCCC(=O)O)C(=O)NCC(=O)O)C(=O)O [β-S-(carboxyethyl) γ-L-glutamyl-L-cysteinyl-glycine]
concentration of an isointense NaCl-solution (sensory panel [4]): 38 mmol/L

N[C@@H](CCC(=O)O)C(=O)[O-].[Na+] [MSG, monosodium glutamate]
Sensory results (compared to 1) (sensory panel [3]; additive 2000 ppm): Higher umami intensity

N[C@@H](CCC(=O)N[C@@H](CS)C(=O)NCC(=O)O)C(=O)O [GSH reduced, glutathione]
Kokumi Intensity (0-5) (sensory panel [3]; chicken broth pH 6.5, additive 10 mmol/L): 3.5

N[C@@H](CCC(=O)N[C@@H](CSC(CCC(=O)O)C(=O)O)C(=O)NCC(=O)O)C(=O)O (stereo partly drawn) [β-S-(α,γ-dicarboxypropyl) γ-L-glutamyl-L-cysteinyl-glycine]
concentration of an isointense NaCl-solution (sensory panel [4]): 48 mmol/L

[Cl-].[Na+] [NaCl, sodium chloride, reference compound]
Sensory results (compared to 1) (sensory panel [3]; additive 2000 ppm): More salty
Sensory results (compared to 1) (sensory panel [5]; additive 2000 ppm): More salty
